Legend:
P. aeruginosa C0307 = assay: Checkerboard assay of 83 with kanamycin A; format: cell-based; conditions: for checkerboard well reading (growth): Supp. Figure 3 B
APH(2”)-IVa = APH(2”)-IVa (Enterococcus casseliflavus, UniProt O68183); assay: IC50 by HPLC quantification of ATP and ADP; format: biochemical, E. casseliflavus
Experimental: The reaction mixture consists of the APH and its substrates, as well as a potential inhibitor for inhibition measurements. Reactions were initiated by adding the ATP solution supplemented or not with the inhibitor, in a thermostated beaker containing the APH. […] The reaction was stopped at several time points by adding 80 µL of the enzymatic reaction mixture from the beaker to 40 µL of 10% perchloric acid (PCA) in an Eppendorf tube. Samples were then centrifuged for 30 min at 12750 rpm and 8 °C. 100 µL of the supernatant was then mixed with 900 µL of mobile phase (250 mM NaH2PO4, 50% Acetonitrile, pH 5.5) supplemented with KOH to readjust the pH to 5.5 before injection. […] 100 µL of samples were injected on a SAX PartiSphere column (AIT France) at a flow rate of 1 mL min^−1. ATP and ADP peaks were integrated, and the area under the peaks was calculated using OpenLab CDS software (v. ChemStation, Agilent). The kss values were then measured using linear regression in GraFit software and IC50 determined by fitting with a hyperbola the percentage of inhibition as a function of inhibitor concentration. The standard error of the IC50 value was determined in the GraFit software based on the fitting of the experimental data.

S. aureus C0032 = assay: Bacterial growth kinetics over 24 h; format: cell-based; conditions: for Increase of latency: 500 µM 83

Chain of APH(2”)-IVa (O68183 entry or part of it): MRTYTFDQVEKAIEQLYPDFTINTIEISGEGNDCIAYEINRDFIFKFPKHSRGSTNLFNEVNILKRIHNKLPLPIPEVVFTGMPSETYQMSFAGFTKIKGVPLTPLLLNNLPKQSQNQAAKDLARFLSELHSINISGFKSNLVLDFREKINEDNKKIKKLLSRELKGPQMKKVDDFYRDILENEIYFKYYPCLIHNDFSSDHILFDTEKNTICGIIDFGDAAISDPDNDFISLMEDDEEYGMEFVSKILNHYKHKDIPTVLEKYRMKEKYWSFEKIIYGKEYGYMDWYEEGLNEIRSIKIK

Clc1cnc2[nH]ccc2c1-c1ccn[nH]1 [Compound 83]
checkerboard well reading (growth) (P. aeruginosa C0307; 83 2 µg.mL-1, kanamycin A 0 µg.mL-1): 1.144 | checkerboard well reading (growth) (P. aeruginosa C0307; 83 2 µg.mL-1, kanamycin A 2 µg.mL-1): 1.163 | checkerboard well reading (growth) (P. aeruginosa C0307; 83 2 µg.mL-1, kanamycin A 4 µg.mL-1): 1.143 | checkerboard well reading (growth) (P. aeruginosa C0307; 83 2 µg.mL-1, kanamycin A 8 µg.mL-1): 1.140 | checkerboard well reading (growth) (P. aeruginosa C0307; 83 2 µg.mL-1, kanamycin A 16 µg.mL-1): 1.101 | checkerboard well reading (growth) (P. aeruginosa C0307; 83 2 µg.mL-1, kanamycin A 32 µg.mL-1): 1.112 | checkerboard well reading (growth) (P. aeruginosa C0307; 83 2 µg.mL-1, kanamycin A 64 µg.mL-1): 0.172 | checkerboard well reading (growth) (P. aeruginosa C0307; 83 2 µg.mL-1, kanamycin A 128 µg.mL-1): 0.038 | checkerboard well reading (growth) (P. aeruginosa C0307; 83 4 µg.mL-1, kanamycin A 0 µg.mL-1): 1.132 | checkerboard well reading (growth) (P. aeruginosa C0307; 83 4 µg.mL-1, kanamycin A 2 µg.mL-1): 1.139 | checkerboard well reading (growth) (P. aeruginosa C0307; 83 4 µg.mL-1, kanamycin A 4 µg.mL-1): 1.161 | checkerboard well reading (growth) (P. aeruginosa C0307; 83 4 µg.mL-1, kanamycin A 8 µg.mL-1): 1.123 | checkerboard well reading (growth) (P. aeruginosa C0307; 83 4 µg.mL-1, kanamycin A 16 µg.mL-1): 1.163 | checkerboard well reading (growth) (P. aeruginosa C0307; 83 4 µg.mL-1, kanamycin A 32 µg.mL-1): 1.149 | checkerboard well reading (growth) (P. aeruginosa C0307; 83 4 µg.mL-1, kanamycin A 64 µg.mL-1): 0.250 | checkerboard well reading (growth) (P. aeruginosa C0307; 83 4 µg.mL-1, kanamycin A 128 µg.mL-1): 0.041 | checkerboard well reading (growth) (P. aeruginosa C0307; 83 8 µg.mL-1, kanamycin A 0 µg.mL-1): 1.480 | checkerboard well reading (growth) (P. aeruginosa C0307; 83 8 µg.mL-1, kanamycin A 2 µg.mL-1): 1.120 | checkerboard well reading (growth) (P. aeruginosa C0307; 83 8 µg.mL-1, kanamycin A 4 µg.mL-1): 1.107 | checkerboard well reading (growth) (P. aeruginosa C0307; 83 8 µg.mL-1, kanamycin A 8 µg.mL-1): 1.138 | checkerboard well reading (growth) (P. aeruginosa C0307; 83 8 µg.mL-1, kanamycin A 16 µg.mL-1): 1.202 | checkerboard well reading (growth) (P. aeruginosa C0307; 83 8 µg.mL-1, kanamycin A 32 µg.mL-1): 1.141 | checkerboard well reading (growth) (P. aeruginosa C0307; 83 8 µg.mL-1, kanamycin A 64 µg.mL-1): 0.170 | checkerboard well reading (growth) (P. aeruginosa C0307; 83 8 µg.mL-1, kanamycin A 128 µg.mL-1): 0.040 | checkerboard well reading (growth) (P. aeruginosa C0307; 83 16 µg.mL-1, kanamycin A 0 µg.mL-1): 1.350 | checkerboard well reading (growth) (P. aeruginosa C0307; 83 16 µg.mL-1, kanamycin A 2 µg.mL-1): 1.145 | checkerboard well reading (growth) (P. aeruginosa C0307; 83 16 µg.mL-1, kanamycin A 4 µg.mL-1): 1.177 | checkerboard well reading (growth) (P. aeruginosa C0307; 83 16 µg.mL-1, kanamycin A 8 µg.mL-1): 1.181 | checkerboard well reading (growth) (P. aeruginosa C0307; 83 16 µg.mL-1, kanamycin A 16 µg.mL-1): 1.121 | checkerboard well reading (growth) (P. aeruginosa C0307; 83 16 µg.mL-1, kanamycin A 32 µg.mL-1): 1.161 | checkerboard well reading (growth) (P. aeruginosa C0307; 83 16 µg.mL-1, kanamycin A 64 µg.mL-1): 0.077 | checkerboard well reading (growth) (P. aeruginosa C0307; 83 16 µg.mL-1, kanamycin A 128 µg.mL-1): 0.041 | checkerboard well reading (growth) (P. aeruginosa C0307; 83 32 µg.mL-1, kanamycin A 0 µg.mL-1): 1.542 | checkerboard well reading (growth) (P. aeruginosa C0307; 83 32 µg.mL-1, kanamycin A 2 µg.mL-1): 1.314 | checkerboard well reading (growth) (P. aeruginosa C0307; 83 32 µg.mL-1, kanamycin A 4 µg.mL-1): 1.373 | checkerboard well reading (growth) (P. aeruginosa C0307; 83 32 µg.mL-1, kanamycin A 8 µg.mL-1): 1.519 | checkerboard well reading (growth) (P. aeruginosa C0307; 83 32 µg.mL-1, kanamycin A 16 µg.mL-1): 1.301 | checkerboard well reading (growth) (P. aeruginosa C0307; 83 32 µg.mL-1, kanamycin A 32 µg.mL-1): 1.153 | checkerboard well reading (growth) (P. aeruginosa C0307; 83 32 µg.mL-1, kanamycin A 64 µg.mL-1): 0.041 | checkerboard well reading (growth) (P. aeruginosa C0307; 83 32 µg.mL-1, kanamycin A 128 µg.mL-1): 0.042 | checkerboard well reading (growth) (P. aeruginosa C0307; 83 64 µg.mL-1, kanamycin A 0 µg.mL-1): 1.274 | checkerboard well reading (growth) (P. aeruginosa C0307; 83 64 µg.mL-1, kanamycin A 2 µg.mL-1): 1.335 | checkerboard well reading (growth) (P. aeruginosa C0307; 83 64 µg.mL-1, kanamycin A 4 µg.mL-1): 1.176 | checkerboard well reading (growth) (P. aeruginosa C0307; 83 64 µg.mL-1, kanamycin A 8 µg.mL-1): 1.404 | checkerboard well reading (growth) (P. aeruginosa C0307; 83 64 µg.mL-1, kanamycin A 16 µg.mL-1): 1.087 | checkerboard well reading (growth) (P. aeruginosa C0307; 83 64 µg.mL-1, kanamycin A 32 µg.mL-1): 0.939 | checkerboard well reading (growth) (P. aeruginosa C0307; 83 64 µg.mL-1, kanamycin A 64 µg.mL-1): 0.044 | checkerboard well reading (growth) (P. aeruginosa C0307; 83 64 µg.mL-1, kanamycin A 128 µg.mL-1): 0.044 | checkerboard well reading (growth) (P. aeruginosa C0307; 83 128 µg.mL-1, kanamycin A 0 µg.mL-1): 1.377 | checkerboard well reading (growth) (P. aeruginosa C0307; 83 128 µg.mL-1, kanamycin A 2 µg.mL-1): 1.277 | checkerboard well reading (growth) (P. aeruginosa C0307; 83 128 µg.mL-1, kanamycin A 4 µg.mL-1): 1.324 | checkerboard well reading (growth) (P. aeruginosa C0307; 83 128 µg.mL-1, kanamycin A 8 µg.mL-1): 1.318 | checkerboard well reading (growth) (P. aeruginosa C0307; 83 128 µg.mL-1, kanamycin A 16 µg.mL-1): 0.963 | checkerboard well reading (growth) (P. aeruginosa C0307; 83 128 µg.mL-1, kanamycin A 32 µg.mL-1): 0.366 | checkerboard well reading (growth) (P. aeruginosa C0307; 83 128 µg.mL-1, kanamycin A 64 µg.mL-1): 0.038 | checkerboard well reading (growth) (P. aeruginosa C0307; 83 128 µg.mL-1, kanamycin A 128 µg.mL-1): 0.043 | Impact of 83 alone on bacterial growth (P. aeruginosa C0307; absence of antibiotics, 83 from 0 to 128 µg mL^−1 (585 µM)): no impact on bacterial growth | IC50 (APH(2”)-IVa): 840 ± 130 nM | Increase of latency (S. aureus C0032; 1024 µg mL^−1 kanamycin A): 14 h | Increase of latency (S. aureus C0032; 2048 µg mL^−1 kanamycin A): 18 h | Growth (S. aureus C0032; 4096 µg mL^−1 kanamycin A, 250 and 500 µM 83, after 24 h): no growth was detected | Effect on growth kinetics (S. aureus C0032; 256 and 512 µg mL^−1 kanamycin A, 500 µM 83, absence of imipenem): slowed growth kinetics | Toxicity of 83 alone on bacteria (S. aureus C0032; up to 500 µM (109 µg mL^−1), no kanamycin A, 24 h): no toxicity

Source: article PMC12749166, “Fragment-based drug design of a bacterial kinase inhibitor capable of increasing the antibiotic sensitivity of clinical isolates” (Communications Chemistry, 2025)
